Reference: US20250213555A1, “SUBSTITUTED TETRAHYDROFURAN ANALOGS AS MODULATORS OF SODIUM CHANNELS” (VERTEX PHARMACEUTICALS INCORPORATED, priority 2021, published 2025)

Each molecule was assayed against human Nav 1.8 (Homo sapiens, UniProt Q9Y5Y9) (assay: E-VIPR assay detecting and measuring Nav inhibition properties). Conditions: HEK cells expressing a truncated form of human Nav 1.8; compound numbers without "*" (not marked as run in the presence of human serum); read-out: measured IC50 value in the E-VIPR Assay.
Sequence of human Nav 1.8 (Q9Y5Y9 126-399 limits assumed): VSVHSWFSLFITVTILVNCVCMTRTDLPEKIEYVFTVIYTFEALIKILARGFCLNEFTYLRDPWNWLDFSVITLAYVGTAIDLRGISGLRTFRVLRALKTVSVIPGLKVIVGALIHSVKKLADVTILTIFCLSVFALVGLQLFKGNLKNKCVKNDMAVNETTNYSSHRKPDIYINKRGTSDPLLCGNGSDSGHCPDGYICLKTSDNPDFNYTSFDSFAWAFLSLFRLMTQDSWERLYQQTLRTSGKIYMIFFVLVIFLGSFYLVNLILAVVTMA
Sequence of human Nav 1.8 (Q9Y5Y9 660-890 limits assumed): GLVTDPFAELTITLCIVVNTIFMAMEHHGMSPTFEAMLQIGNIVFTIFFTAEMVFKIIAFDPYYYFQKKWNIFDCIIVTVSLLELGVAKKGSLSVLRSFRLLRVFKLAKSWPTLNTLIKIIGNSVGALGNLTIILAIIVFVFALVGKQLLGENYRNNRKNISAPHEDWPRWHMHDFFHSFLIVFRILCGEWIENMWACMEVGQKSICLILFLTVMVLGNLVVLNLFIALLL
Sequence of human Nav 1.8 (Q9Y5Y9 1148-1722 limits assumed): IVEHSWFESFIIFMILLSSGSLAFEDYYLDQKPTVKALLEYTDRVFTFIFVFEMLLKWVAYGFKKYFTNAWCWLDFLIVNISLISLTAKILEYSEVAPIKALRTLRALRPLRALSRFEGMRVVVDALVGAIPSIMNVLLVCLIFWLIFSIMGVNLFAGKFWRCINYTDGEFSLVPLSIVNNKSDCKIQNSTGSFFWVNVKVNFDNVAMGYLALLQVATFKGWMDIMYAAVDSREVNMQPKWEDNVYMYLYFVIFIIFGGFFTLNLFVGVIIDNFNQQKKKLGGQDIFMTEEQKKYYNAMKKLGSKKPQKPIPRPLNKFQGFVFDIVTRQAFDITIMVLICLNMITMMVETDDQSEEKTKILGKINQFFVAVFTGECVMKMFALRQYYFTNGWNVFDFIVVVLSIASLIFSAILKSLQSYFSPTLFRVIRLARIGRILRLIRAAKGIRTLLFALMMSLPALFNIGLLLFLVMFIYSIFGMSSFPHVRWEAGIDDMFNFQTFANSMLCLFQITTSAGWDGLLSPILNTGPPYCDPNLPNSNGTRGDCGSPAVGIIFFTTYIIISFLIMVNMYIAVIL
Assay type: cell-based
Procedure, shortened: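 Nav inhibition was read by E-VIPR: cells were electrically stimulated while coumarin/oxonol FRET emissions were recorded. Cells were HEK expressing a truncated human Nav 1.8 and co-transduced with KIR2.1, and were assayed in 25% final human serum.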
For COc1c([C@H]2[C@H](C(=O)Nc3ccnc(C(=O)N4CCN(C)[C@@H]5C[C@@H]54)c3)O[C@@](C)(C(F)(F)F)[C@H]2C)ccc(F)c1F (single isomer, unassigned) [Compound 295, rel-(2R*,3S*,4S*,5R*)-3-(3,4-difluoro-2-methoxyphenyl)-4,5-dimethyl-N-(2-((1S,6R)-5-methyl-2,5-diazabicyclo[4.1.0]heptane-2-carbonyl)pyridin-4-yl)-5-(trifluoromethyl)tetrahydrofuran-2-carboxamide], the IC50 was less than 10 nM. With C[C@H]1[C@@H](c2ccc(F)c(F)c2OCCNCC(F)F)[C@H](C(=O)Nc2ccnc(C(N)=O)c2)O[C@@]1(C)C(F)(F)F [Compound 112, 4-((2R,3S,4S,5R)-3-(2-(2-((2,2-difluoroethyl)amino)ethoxy)-3,4-difluorophenyl)-4,5-dimethyl-5-(trifluoromethyl)tetrahydrofuran-2-carboxamido)picolinamide] the IC50 was less than 10 nM. COc1c([C@H]2[C@H](C(=O)Nc3cc(C(=O)N4CCN(C)CC4)ccn3)O[C@@](C)(C(F)(F)F)[C@H]2C)ccc(F)c1F [Compound 14, (2R,3S,4S,5R)-3-(3,4-difluoro-2-methoxyphenyl)-4,5-dimethyl-N-(4-(4-methylpiperazine-1-carbonyl)pyridin-2-yl)-5-(trifluoromethyl)tetrahydrofuran-2-carboxamide] was tested, and the IC50 was 100 to 1000 nM. CC(C)C(COc1c([C@H]2[C@H](C(=O)Nc3ccnc(C(N)=O)c3)O[C@@](C)(C(F)(F)F)[C@H]2C)ccc(F)c1F)=NO [Compound 186, 4-((2R,3S,4S,5R)-3-(3,4-difluoro-2-(2-(hydroxyimino)-3-methylbutoxy)phenyl)-4,5-dimethyl-5-(trifluoromethyl)tetrahydrofuran-2-carboxamido)picolinamide] gave an IC50 of less than 10 nM. For COc1c([C@H]2[C@H](C(=O)Nc3ccnc(C(=O)N4CCNCC4)c3)O[C@@](C)(C(F)(F)F)[C@H]2C)ccc(F)c1F [Compound 224, (2R,3S,4S,5R)-3-(3,4-difluoro-2-methoxyphenyl)-4,5-dimethyl-N-(2-(piperazine-1-carbonyl)pyridin-4-yl)-5-(trifluoromethyl)tetrahydrofuran-2-carboxamide], the IC50 was less than 10 nM. C[C@H]1[C@@H](c2ccc(F)c(F)c2OCCN2CC(C)(O)C2)[C@H](C(=O)Nc2ccnc(C(N)=O)c2)O[C@@]1(C)C(F)(F)F [Compound 122, 4-((2R,3S,4S,5R)-3-(3,4-difluoro-2-(2-(3-hydroxy-3-methylazetidin-1-yl)ethoxy)phenyl)-4,5-dimethyl-5-(trifluoromethyl)tetrahydrofuran-2-carboxamido)picolinamide] gave an IC50 of 10 to 100 nM. For COc1c([C@H]2[C@H](C(=O)Nc3ccnc(C(=O)N(C)[C@H]4CN(C)C[C@@H]4OC)c3)O[C@@](C)(C(F)(F)F)[C@H]2C)ccc(F)c1F [Compound 286, 4-((2R,3S,4S,5R)-3-(3,4-difluoro-2-methoxyphenyl)-4,5-dimethyl-5-(trifluoromethyl)tetrahydrofuran-2-carboxamido)-N-((3S,4S)-4-methoxy-1-methylpyrrolidin-3-yl)-N-methylpicolinamide], the IC50 was less than 10 nM. Molecule COc1c([C@H]2[C@H](C(=O)Nc3ccnc(C(=O)NC4CN(C)C4)c3)O[C@@](C)(C(F)(F)F)[C@H]2C)ccc(F)c1F [Compound 275, 4-((2R,3S,4S,5R)-3-(3,4-difluoro-2-methoxyphenyl)-4,5-dimethyl-5-(trifluoromethyl)tetrahydrofuran-2-carboxamido)-N-(1-methylazetidin-3-yl)picolinamide] has an IC50 of 10 to 100 nM. C[C@H]1[C@@H](c2ccc(F)c3c2CCC3(F)F)[C@H](C(=O)Nc2ccnc(C(N)=O)c2)O[C@@]1(C)C(F)(F)F (single isomer, unassigned) [Compound 149] gave an IC50 of less than 10 nM. Molecule C[C@H]1[C@@H](c2ccc(F)c(F)c2OCC(CO)CO)[C@H](C(=O)Nc2ccnc(C(N)=O)c2)O[C@@]1(C)C(F)(F)F [Compound 91, 4-((2R,3S,4S,5R)-3-(3,4-difluoro-2-(3-hydroxy-2-(hydroxymethyl)propoxy)phenyl)-4,5-dimethyl-5-(trifluoromethyl)tetrahydrofuran-2-carboxamido)picolinamide] has an IC50 of 100 to 1000 nM. With COc1c([C@H]2[C@H](C(=O)Nc3ccnc(C(=O)N[C@H]4CN(C)CC[C@H]4OC)c3)O[C@@](C)(C(F)(F)F)[C@H]2C)ccc(F)c1F [Compound 285, 4-((2R,3S,4S,5R)-3-(3,4-difluoro-2-methoxyphenyl)-4,5-dimethyl-5-(trifluoromethyl)tetrahydrofuran-2-carboxamido)-N-((3S,4R)-4-methoxy-1-methylpiperidin-3-yl)picolinamide] the IC50 was 100 to 1000 nM. With COc1c([C@H]2[C@H](C(=O)Nc3ccnc(C(=O)N4CC5(CNC5)C4)c3)O[C@@](C)(C(F)(F)F)[C@H]2C)ccc(F)c1F [Compound 228, (2R,3S,4S,5R)-N-(2-(2,6-diazaspiro[3.3]heptane-2-carbonyl)pyridin-4-yl)-3-(3,4-difluoro-2-methoxyphenyl)-4,5-dimethyl-5-(trifluoromethyl)tetrahydrofuran-2-carboxamide] the IC50 was less than 10 nM. COc1c([C@H]2[C@H](C(=O)Nc3ccnc(C(=O)N4C[C@@H](N(C)C)[C@@H](F)C4)c3)O[C@@](C)(C(F)(F)F)[C@H]2C)ccc(F)c1F [Compound 300, (2R,3S,4S,5R)-3-(3,4-difluoro-2-methoxyphenyl)-N-(2-((3R,4S)-3-(dimethylamino)-4-fluoropyrrolidine-1-carbonyl)pyridin-4-yl)-4,5-dimethyl-5-(trifluoromethyl)tetrahydrofuran-2-carboxamide] gave an IC50 of 10 to 100 nM. With COc1c([C@H]2[C@H](C(=O)Nc3ccnc(C(=O)N(C)[C@@H]4CCNC4)c3)O[C@@](C)(C(F)(F)F)[C@H]2C)ccc(F)c1F [Compound 229, 4-((2R,3S,4S,5R)-3-(3,4-difluoro-2-methoxyphenyl)-4,5-dimethyl-5-(trifluoromethyl)tetrahydrofuran-2-carboxamido)-N-methyl-N-((R)-pyrrolidin-3-yl)picolinamide] the IC50 was less than 10 nM. With C[C@H](COc1c([C@H]2[C@H](C(=O)Nc3ccnc(C(N)=O)c3)O[C@@](C)(C(F)(F)F)[C@H]2C)ccc(F)c1F)N1CC2(COC2)C1 [Compound 42, 4-((2R,3S,4S,5R)-3-(2-((R)-2-(2-oxa-6-azaspiro[3.3]heptan-6-yl)propoxy)-3,4-difluorophenyl)-4,5-dimethyl-5-(trifluoromethyl)tetrahydrofuran-2-carboxamido)picolinamide] the IC50 was 10 to 100 nM. For C[C@H]1[C@@H](c2ccc(F)c(F)c2OC2CCOCC2)[C@H](C(=O)Nc2ccnc(C(N)=O)c2)O[C@@]1(C)C(F)(F)F [Compound 65, 4-((2R,3S,4S,5R)-3-(3,4-difluoro-2-((tetrahydro-2H-pyran-4-yl)oxy)phenyl)-4,5-dimethyl-5-(trifluoromethyl)tetrahydrofuran-2-carboxamido)picolinamide], the IC50 was less than 10 nM. C=C(COc1c([C@H]2[C@H](C(=O)Nc3ccnc(C(N)=O)c3)O[C@@](C)(C(F)(F)F)[C@H]2C)ccc(F)c1F)C(F)(F)F [Compound 75, 4-((2R,3S,4S,5R)-3-(3,4-difluoro-2-((2-(trifluoromethyl)allyl)oxy)phenyl)-4,5-dimethyl-5-(trifluoromethyl)tetrahydrofuran-2-carboxamido)picolinamide] gave an IC50 of less than 10 nM. Work on COc1c([C@H]2[C@H](C(=O)Nc3ccnc(C(N)=O)c3)O[C@@](C)(C(F)(F)F)[C@H]2C)cc(OCc2ccccc2)c(F)c1F [Compound 177, 4-((2R,3S,4S,5R)-3-(5-(benzyloxy)-3,4-difluoro-2-methoxyphenyl)-4,5-dimethyl-5-(trifluoromethyl)tetrahydrofuran-2-carboxamido) picolinamide] yielded an IC50 of less than 10 nM. With C[C@H]1[C@@H](c2ccc(F)c(F)c2OCCC2(O)CC2)[C@H](C(=O)Nc2ccnc(C(N)=O)c2)O[C@@]1(C)C(F)(F)F [Compound 156, 4-((2R,3S,4S,5R)-3-(3,4-difluoro-2-(2-(1-hydroxycyclopropyl)ethoxy)phenyl)-4,5-dimethyl-5-(trifluoromethyl)tetrahydrofuran-2-carboxamido)picolinamide] the IC50 was less than 10 nM. COc1c([C@H]2[C@H](C(=O)Nc3ccnc(C(=O)N4CCN(C)[C@H](C)C4)c3)O[C@@](C)(C(F)(F)F)[C@H]2C)ccc(F)c1F [Compound 288, (2R,3S,4S,5R)-3-(3,4-difluoro-2-methoxyphenyl)-N-(2-((R)-3,4-dimethylpiperazine-1-carbonyl)pyridin-4-yl)-4,5-dimethyl-5-(trifluoromethyl)tetrahydrofuran-2-carboxamide] was tested, and the IC50 was less than 10 nM. CC(COc1c([C@H]2[C@H](C(=O)Nc3ccnc(C(N)=O)c3)O[C@@](C)(C(F)(F)F)[C@H]2C)cccc1C(F)(F)F)=NO [Compound 196, 4-((2R,3S,4S,5R)-3-(2-(2-(hydroxyimino)propoxy)-3-(trifluoromethyl)phenyl)-4,5-dimethyl-5-(trifluoromethyl)tetrahydrofuran-2-carboxamido)picolinamide] gave an IC50 of less than 10 nM. In the case of CC[C@H](CO)COc1c([C@H]2[C@H](C(=O)Nc3ccnc(C(N)=O)c3)O[C@@](C)(C(F)(F)F)[C@H]2C)ccc(F)c1F (single isomer, unassigned) [Compound 93, rel-4-((2R*,3S*,4S*,5R*)-3-(3,4-difluoro-2-(2-(hydroxymethyl)butoxy)phenyl)-4,5-dimethyl-5-(trifluoromethyl)tetrahydrofuran-2-carboxamido)picolinamide], the IC50 is reported as less than 10 nM. With COC1(C)CN(CCOc2c([C@H]3[C@H](C(=O)Nc4ccnc(C(N)=O)c4)O[C@@](C)(C(F)(F)F)[C@H]3C)ccc(F)c2F)C1 [Compound 48, 4-((2R,3S,4S,5R)-3-(3,4-difluoro-2-(2-(3-methoxy-3-methylazetidin-1-yl)ethoxy)phenyl)-4,5-dimethyl-5-(trifluoromethyl)tetrahydrofuran-2-carboxamido)picolinamide] the IC50 was 10 to 100 nM.
